Calls of active or inactive are those of the source. No cut-off for these calls is given here.
Legend:
[1] = Inhibition of Escherichia coli MurD ligase
[2] = biological target: T1, Tubulin polyglutamylase TTLL7 (Mus musculus, UniProt A4Q9F0); assay: (§1) Inhibition of mouse recombinant N-terminal GST-tagged TTLL7-mediated Ac-DATAEEEGEFEEEAEEEVA glutamylation expressed in Escherichia coli Rosetta2 DE3 after 16 hrs by LC-MS analysis
T1 sequence (A4Q9F0 whole entry): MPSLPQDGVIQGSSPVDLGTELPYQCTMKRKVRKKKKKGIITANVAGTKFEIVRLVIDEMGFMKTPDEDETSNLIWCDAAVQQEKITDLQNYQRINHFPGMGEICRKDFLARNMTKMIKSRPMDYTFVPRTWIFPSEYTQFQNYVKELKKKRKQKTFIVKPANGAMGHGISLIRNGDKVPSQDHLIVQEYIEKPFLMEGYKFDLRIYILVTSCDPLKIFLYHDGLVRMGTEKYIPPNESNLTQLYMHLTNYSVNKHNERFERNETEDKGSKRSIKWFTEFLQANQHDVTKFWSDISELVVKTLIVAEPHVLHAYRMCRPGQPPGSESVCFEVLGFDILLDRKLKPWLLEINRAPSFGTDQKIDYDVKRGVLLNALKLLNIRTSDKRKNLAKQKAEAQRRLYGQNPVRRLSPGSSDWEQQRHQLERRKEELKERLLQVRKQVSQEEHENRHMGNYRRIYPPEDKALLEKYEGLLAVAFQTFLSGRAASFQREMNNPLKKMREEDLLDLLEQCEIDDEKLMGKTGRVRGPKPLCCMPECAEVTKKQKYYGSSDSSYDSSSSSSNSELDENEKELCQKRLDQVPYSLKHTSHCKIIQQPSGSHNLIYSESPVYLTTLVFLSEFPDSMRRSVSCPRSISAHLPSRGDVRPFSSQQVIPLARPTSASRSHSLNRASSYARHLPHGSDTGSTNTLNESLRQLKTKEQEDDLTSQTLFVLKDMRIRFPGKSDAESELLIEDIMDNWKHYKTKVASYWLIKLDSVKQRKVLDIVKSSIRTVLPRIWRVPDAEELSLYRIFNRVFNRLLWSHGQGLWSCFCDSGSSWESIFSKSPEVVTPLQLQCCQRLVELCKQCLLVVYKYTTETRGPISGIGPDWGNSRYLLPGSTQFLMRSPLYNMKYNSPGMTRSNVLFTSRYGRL

[3] = biological target: T2, Tubulin--tyrosine ligase (Homo sapiens) (UniProt Q8NG68); assay: Inhibition of TTL (unknown origin)
T2 sequence (whole entry): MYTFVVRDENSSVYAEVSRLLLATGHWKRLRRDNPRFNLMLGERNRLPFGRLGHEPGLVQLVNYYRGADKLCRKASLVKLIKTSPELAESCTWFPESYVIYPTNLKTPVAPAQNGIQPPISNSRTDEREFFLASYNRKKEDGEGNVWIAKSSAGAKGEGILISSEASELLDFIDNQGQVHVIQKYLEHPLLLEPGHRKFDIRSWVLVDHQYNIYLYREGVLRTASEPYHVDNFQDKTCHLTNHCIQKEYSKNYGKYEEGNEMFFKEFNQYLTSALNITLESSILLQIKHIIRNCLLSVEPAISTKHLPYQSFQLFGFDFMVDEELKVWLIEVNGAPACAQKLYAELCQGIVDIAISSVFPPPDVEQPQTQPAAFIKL

[4] = biological target: T3, Tubulin polyglutamylase TTLL7 (Mus musculus) (UniProt A4Q9F0); assay: as §1
T3 sequence (whole entry): T1 sequence (A4Q9F0 whole entry)

| SMILES | IC50 [1] | IC50 [2] | inhibition [3] | inhibition [4] |
| --- | --- | --- | --- | --- |
| CC(=O)N[C@H]1[C@@H](OP(=O)(O)OP(=O)(O)OC[C@H]2O[C@@H](n3ccc(=O)[nH]c3=O)[C@H](O)[C@@H]2O)O[C@H](CO)[C@@H](O)[C@@H]1O[C@H](C)C(=O)N[C@@H](C)P(=O)(O)CC(CCC(=O)O)C(=O)O (stereo partly drawn) | 1 nM | – | – | – |
| CCNC(=O)[C@H](CCP(=O)(O)CC(CCC(=O)O)C(=O)O)NC(C)=O (mixture of isomers) | – | – | inactive | Active |

Further lines, results first:

| IC50 [1] | IC50 [2] | inhibition [3] | inhibition [4] | SMILES |
| --- | --- | --- | --- | --- |
| 700 nM | – | – | – | CC(NC(=O)CCCCCOP(=O)(O)OP(=O)(O)OC[C@H]1O[C@@H](n2ccc(=O)[nH]c2=O)[C@H](O)[C@@H]1O)P(=O)(O)CC(CCC(=O)O)C(=O)O (stereo partly drawn) |
| – | 150000 nM | inactive | – | CC(=O)NC(CCC(=O)O)P(=O)(O)CC(CCC(=O)O)C(=O)O (mixture of isomers) |
| – | – | inactive | Active | CC(=O)N[C@@H](CCP(=O)(O)CC(CCC(=O)O)C(=O)O)C(=O)O (mixture of isomers) |
